Source: patent US20070208009A1, “COMBINATION OF ANTI-HIV REVERSE TRANSCRIPTASE AND PROTEASE INHIBITORS” (priority 2004, published 2007)
pIC50, pKi: −log10 of the molar value. Where two headings read alike, the source gives them in different places.

Assays:
HIV-1 RT = molecular target: T1, HIV-1 RT (Human immunodeficiency virus type 1 group M subtype B, UniProt P04585); details: inhibition of HIV-1 RT; competitive with deoxyadenosine triphosphate incorporation; read-out: inhibition constant; cited from earlier work
T1 construct: The primary target of tenofovir diphosphate is reverse transcriptase (RT)

[1] = system: laboratory HIV-1 strains and primary clinical isolates; details: cited from earlier work
[2] = atazanavir/ritonavir 300/100 mg once daily, cited from earlier work
[3] = ritonavir 100 mg once daily with atazanavir, cited from earlier work
[4] = cited from earlier work; for Geometric mean ratio (95% confidence interval) for the AUC: saquinavir hard gel/ritonavir 1000/100 mg twice daily + tenofovir disoproxil fumarate 300 mg once daily
[5] = healthy subjects, cited from earlier work; for AUC increase / Cmax increase / Cmin increase: saquinavir/ritonavir 1000/100 mg twice daily with tenofovir disoproxil fumarate 300 mg once daily vs alone
[6] = Volunteer study of TMC114/ritonavir with tenofovir disoproxil fumarate, pharmacokinetics and tolerability
Procedure: Methods: 13 healthy volunteers were randomised into 2 cohorts.
In session 2, both cohorts received 300 mg tenofovir disoproxil fumarate qd for 14 days.

[7] = lopinavir/ritonavir 400/100 mg twice daily 14 days + tenofovir 300 mg once daily, healthy volunteers; cited from earlier work
[8] = after addition of tenofovir disoproxil fumarate 300 mg once daily
[9] = before addition of tenofovir disoproxil fumarate
[10] = in the presence of tenofovir 300 mg once daily
[11] = tenofovir disoproxil fumarate 300 mg qd with TMC114/ritonavir co-administered vs alone, statistically significant

CC(Cn1cnc2c(N)ncnc21)OCP(=O)(O)OP(=O)(O)OP(=O)(O)O (stereo in doubt) [tenofovir diphosphate]
pKi (HIV-1 RT): ~6.05

CC(C)CN(C[C@@H](O)[C@H](Cc1ccccc1)NC(=O)OC1CO[C@H]2OCC[C@@H]12)S(=O)(=O)c1ccc(N)cc1 (some centres unmarked) [TMC114]
IC90 [1]: ~9 nM | pIC50 ([1]; read-out: 50% inhibitory concentration [IC50]): ~8.52

COC(=O)N[C@H](C(=O)N[C@@H](Cc1ccccc1)[C@@H](O)CN(Cc1ccc(-c2ccccn2)cc1)NC(=O)[C@@H](NC(=O)OC)C(C)(C)C)C(C)(C)C [atazanavir]
AUC (mean±sd) [2, 8]: 39276 ± 23034 ng·h/mL | Cmax (mean±sd) [2, 8]: 3443 ± 1412 ng/mL | AUC (mean±sd) [2, 9]: 53761 ± 35255 ng·h/mL | Cmax (mean±sd) [2, 9]: 5233 ± 3033 ng/mL

CC(C)c1nc(CN(C)C(=O)N[C@H](C(=O)N[C@@H](Cc2ccccc2)C[C@H](O)[C@H](Cc2ccccc2)NC(=O)OCc2cncs2)C(C)C)cs1 [ritonavir]
AUC [3, 10]: 5217 ng·h/mL | Cmax [3, 10]: 642 ng/mL | AUC ([3]; without tenofovir, HIV+ subjects): 7011 ng·h/mL | Cmax ([3]; without tenofovir): 886 ng/mL | plasma concentrations compared with day 1 ([4]; in vivo): not significantly different

CC(C)(C)NC(=O)[C@@H]1C[C@@H]2CCCC[C@@H]2CN1C[C@@H](O)[C@H](Cc1ccccc1)NC(=O)[C@H](CC(N)=O)NC(=O)c1ccc2ccccc2n1 [saquinavir]
AUC increase [5]: 29% | Cmax increase [5]: 22% | Cmin increase [5]: 47% | Cmin achieved by all subjects ([5]; saquinavir/ritonavir 1000/100 mg twice daily): above 100 ng/ml | Geometric mean ratio (95% confidence interval) for the AUC ([4]; day 3 vs day 1): 1.16 (0.97, 1.59) | Geometric mean ratio (95% confidence interval) for the AUC ([4]; day 14 vs day 1): 0.99 (0.87, 1.30) | plasma concentrations compared with day 1 ([4]; following the addition of tenofovir disoproxil fumarate): not significantly different

C[C@H](Cn1cnc2c(N)ncnc21)OCP(=O)(O)O [tenofovir]
AUC increase [5]: 14% | Cmax increase [5]: 15% | Cmin increase [5]: 23% | urinary excretion of unchanged drug during one dosing interval ([6]; in the presence and absence of TMC114/RTV): approximately 36% | AUC24h (systemic exposure) increase based on the ratio of LSmeans [6, 11]: 22% | Cmax increase based on the ratio of LSmeans [6, 11]: 24% | Cmin increase based on the ratio of LSmeans [6, 11]: 37% | AUC increase [7]: 34% | Cmax increase [7]: 31% | Cmin increase [7]: 29%
